Measurements: US9096492B2, “Hydrated N-fullerene amino acids, method for producing the latter, and pharmaceutical compositions on the basis thereof” (priority 2011, dated 2015)
“And” between values parts separate entries of the source, which are not always exact repeats. Equal values may be shown once. Read-outs that look alike come from different tables or passages of the source.

Assays:
[1] = rat, in vivo
[2] = Acute toxicity in rats after a single intramuscular injection; type: in vivo, Wistar rats
[3] = rat, in vivo; remark: listed apart in the source
[4] = test system: ascites Ehrlich carcinoma cells; assay: Apoptosis in ascites Ehrlich carcinoma cells of treated mice (cytofluorimetric analysis); type: in vivo
[5] = test system: A/Aichi/2/69 (H3N2) influenza virus; assay: Induced influenza pneumonia in mice; conditions: for Average lifetime (days) / Death rate (%) / Percent death protection (%) / Survival (survivors/total): observation day 16
[6] = ascites cells having large sizes and granularity (tumor cells)
[7] = ascites cells of moderate size and granularity

N-fullerene tris(δ-aminocaproic acid) hydrate [Agent 1]
Weight coefficients of viscera, Spleen [1]: 5.2 ± 0.7 g/kg body weight | Weight coefficients of viscera, heart [1]: 4.1 ± 0.4 g/kg body weight | Weight coefficients of viscera, kidneys [1]: 6.5 ± 0.4 g/kg body weight | Weight coefficients of viscera, liver [1]: 32.2 ± 1.8 g/kg body weight | Weight coefficients of viscera, lungs [1]: 7.1 ± 0.5 g/kg body weight | Weight coefficients of viscera, thymus [1]: 1.2 ± 0.4 g/kg body weight | weight coefficients of organs versus control [1]: no significant difference was found between experimental and control animals | weight coefficients of viscera versus control [1]: no distinctions between the rats of the experimental groups and the control group | Weight coefficients of viscera, Spleen ([1]; 3 mg/kg): 4.7 ± 0.5 g/kg body weight | Weight coefficients of viscera, heart ([1]; 3 mg/kg): 3.5 ± 0.7 g/kg body weight | Weight coefficients of viscera, kidneys ([1]; 3 mg/kg): 7.2 ± 0.5 g/kg body weight | Weight coefficients of viscera, heart ([1]; 9 mg/kg): 3.8 ± 0.6 g/kg body weight | death during the 14-day observation period ([2]; 5, 50 and 500 mg/kg single i.m.): No death occurred | Animal body weight (M ± SD) ([2]; females, 5 mg/kg single intramuscular, day 0): 163 ± 15.5 g | Animal body weight (M ± SD) ([2]; females, 50 mg/kg single intramuscular, day 0): 165 ± 17.5 g | Animal body weight (M ± SD) ([2]; females, 500 mg/kg single intramuscular, day 0): 160 ± 8.1 g | Animal body weight (M ± SD) ([2]; females, 500 mg/kg single intramuscular, day 7): 169 ± 8.0 g | Animal body weight (M ± SD) ([2]; males, 5 mg/kg single intramuscular, day 7): 228 ± 18.1 g | Animal body weight (M ± SD) ([2]; males, 5 mg/kg single intramuscular, day 14): 276 ± 17.8 g | Animal body weight (M ± SD) ([2]; males, 50 mg/kg single intramuscular, day 7): 228 ± 17.0 g | Animal body weight (M ± SD) ([2]; males, 50 mg/kg single intramuscular, day 14): 279 ± 18.3 g | Animal body weight (M ± SD) ([2]; males, 500 mg/kg single intramuscular, day 14): 258 ± 24.1 g | LD50 ([2]; single intramuscular administration, exceeds the maximal tested dose): > 500 mg/kg | induction of microscopic changes in organs [3]: the identified changes were not induced by the studied substance | Animals with changes, Number: Liver, Plethora of sinusoidal capillaries ([3]; 20 mg/kg): 5 | Animals with changes, Number: Lung, Thickening of the interalveolar septa (total) ([3]; 20 mg/kg): 1 | AnV^+ 7AAD^+ (late apoptosis) [4, 6]: 69.5 ± 5.8% | AnV^+ 7AAD^− (early apoptosis) [4, 6]: 0.1 ± 0.1% | AnV^−7AAD^− (living cells) [4, 6]: 0.3 ± 0.1% | AnV^−7AAD^+ (necrosis) ([4]; ascites cells having large sizes and granularity (tumor cells), hydrate): 30.2% and 30.2 ± 5.9% | Percent amount of cells with the phenotype AnV^+ 7AAD^+ (late apoptosis) [4, 7]: 4.2 ± 2.4% | Percent amount of cells with the phenotype AnV^+ 7AAD^− early apoptosis [4, 7]: 31.1 ± 10.4% | Percent amount of cells with the phenotype AnV^−7AAD^+ (necrosis) [4, 7]: 0.4 ± 0.4% | Percent amount of cells with the phenotype AnV^−7AAD^− (living cells) [4, 7]: 6.1 ± 6.2% | Percent body weight change ([5]; intramuscularly 50 mg/kg/day, day 1 post infection): +9% | Percent body weight change ([5]; intramuscularly 50 mg/kg/day, day 2 post infection): +14% | Percent body weight change ([5]; intramuscularly 50 mg/kg/day, day 3 post infection): +21% | Percent body weight change ([5]; intramuscularly 50 mg/kg/day, day 4 post infection): +26% | Percent body weight change ([5]; intramuscularly 50 mg/kg/day, day 5 post infection): +30% | Percent body weight change ([5]; intramuscularly 50 mg/kg/day, day 7 post infection): +27% | Percent body weight change ([5]; intramuscularly 50 mg/kg/day, day 9 post infection): +38% | Percent body weight change ([5]; intramuscularly 50 mg/kg/day, day 11 post infection): +64% | Percent body weight change ([5]; intramuscularly 50 mg/kg/day, day 13 post infection): +74% | Average lifetime (days) ([5]; intramuscularly 50 mg/kg/day): 12.4 (1-7 d., 1-9 d., 2-11 d) days | Death rate (%) ([5]; intramuscularly 50 mg/kg/day): 40% | Percent death protection (%) ([5]; intramuscularly 50 mg/kg/day): 50% | Survival (survivors/total) ([5]; intramuscularly 50 mg/kg/day): 6/10 | Percent body weight change ([5]; intramuscularly 100 mg/kg/day, day 1 post infection): +13% | Percent body weight change ([5]; intramuscularly 100 mg/kg/day, day 2 post infection): +17% | Percent body weight change ([5]; intramuscularly 100 mg/kg/day, day 3 post infection): +23% | Percent body weight change ([5]; intramuscularly 100 mg/kg/day, day 4 post infection): +28% | Percent body weight change ([5]; intramuscularly 100 mg/kg/day, day 5 post infection): +31% | Percent body weight change ([5]; intramuscularly 100 mg/kg/day, day 7 post infection): +39% | Percent body weight change ([5]; intramuscularly 100 mg/kg/day, day 9 post infection): +65% | Percent body weight change ([5]; intramuscularly 100 mg/kg/day, day 11 post infection): +7% | Percent body weight change ([5]; intramuscularly 100 mg/kg/day, day 13 post infection): +82% | Average lifetime (days) ([5]; intramuscularly 100 mg/kg/day): 13.5 (1-8 d, 1-9 d) days | Death rate (%) ([5]; intramuscularly 100 mg/kg/day): 20% | Percent death protection (%) ([5]; intramuscularly 100 mg/kg/day): 70% | Survival (survivors/total) ([5]; intramuscularly 100 mg/kg/day): 8/10 | Percent body weight change ([5]; intramuscularly 200 mg/kg/day, day 1 post infection): +11% | Percent body weight change ([5]; intramuscularly 200 mg/kg/day, day 2 post infection): +20% | Percent body weight change ([5]; intramuscularly 200 mg/kg/day, day 3 post infection): +26% | Percent body weight change ([5]; intramuscularly 200 mg/kg/day, day 4 post infection): +35% | Percent body weight change ([5]; intramuscularly 200 mg/kg/day, day 5 post infection): +39% | Percent body weight change ([5]; intramuscularly 200 mg/kg/day, day 7 post infection): +43% | Percent body weight change ([5]; intramuscularly 200 mg/kg/day, day 9 post infection): +51% | Percent body weight change ([5]; intramuscularly 200 mg/kg/day, day 11 post infection): +62% | Percent body weight change ([5]; intramuscularly 200 mg/kg/day, day 13 post infection): +70% | Average lifetime (days) ([5]; intramuscularly 200 mg/kg/day): 14.4 (1-10 d) days | Death rate (%) ([5]; intramuscularly 200 mg/kg/day): 10% | Percent death protection (%) ([5]; intramuscularly 200 mg/kg/day): 80% | Survival (survivors/total) ([5]; intramuscularly 200 mg/kg/day): 9/10 | tolerability in infected mice ([5]; intraperitoneal, 200 mg/kg/day): toxic | Percent body weight change ([5]; intraperitoneally 50 mg/kg/day, day 1 post infection): +11% | Percent body weight change ([5]; intraperitoneally 50 mg/kg/day, day 2 post infection): +17% | Percent body weight change ([5]; intraperitoneally 50 mg/kg/day, day 3 post infection): +22% | Percent body weight change ([5]; intraperitoneally 50 mg/kg/day, day 4 post infection): +25% | Percent body weight change ([5]; intraperitoneally 50 mg/kg/day, day 5 post infection): +28% | Percent body weight change ([5]; intraperitoneally 50 mg/kg/day, day 7 post infection): +35% | Percent body weight change ([5]; intraperitoneally 50 mg/kg/day, day 9 post infection): +41% | Percent body weight change ([5]; intraperitoneally 50 mg/kg/day, day 11 post infection): +67%
